{"source": "patent CN1119437A", "about": "“环缩酚酸肽pf1022衍生物” (Meiji Seika Kaisha Ltd, priority 1993, dated 1996)", "key": {"巴西日园线虫": {"system": "巴西日园线虫", "assay": "Anthelmintic efficacy against rat intestinal nematode (Test 3)", "assay_type": "in vivo", "conditions": "male Wistar rats, 2000 larvae s.c., 10 mg/kg 7 days after infection, adult worms in small intestine counted 10 days after dosing"}, "鸡蛔虫": {"system": "鸡蛔虫", "assay": "Chicken roundworm removal test (Test 1)", "assay_type": "in vivo"}}}
{"molecule": "CC(C)C[C@H]1C(=O)O[C@H](Cc2ccc(O)cc2)C(=O)N(C)[C@@H](CC(C)C)C(=O)O[C@H](C)C(=O)N(C)[C@@H](CC(C)C)C(=O)O[C@H](Cc2ccccc2)C(=O)N(C)[C@@H](CC(C)C)C(=O)O[C@H](C)C(=O)N1C", "note": "[PF1022 E, 环—(—L—MeLeu—D—Lac—L—MeLeu—D—TYRA—L—MeLeu-D—Lac—L—Mekeu—D—PhLac)]", "values": [{"measurement": "存留虫收(average value±SD)", "setting": "巴西日园线虫", "result": "2175±134.4"}, {"measurement": "杀虫率", "setting": "鸡蛔虫; dose 0.5 mg/kg", "result": 70, "unit": "%"}]}
{"molecule": "CC(C)CC1C(=O)OC(C)C(=O)N(C)C(CC(C)C)C(=O)OC(C)C(=O)N(C)C(CC(C)C)C(=O)OC(C)C(=O)N(C)C(CC(C)C)C(=O)OC(C)C(=O)N1C", "note": "(centres unmarked) [PF1022-002, 环—(L—meLeu—D—Lac—)4]", "values": [{"measurement": "存留虫收(average value±SD)", "setting": "巴西日园线虫", "result": "1976.5±306.2"}]}
{"molecule": "CC(C)C[C@H]1OC(=O)[C@H](CC(C)C)N(C)C(=O)[C@@H](C)OC(=O)[C@H](CC(C)C)N(C)C(=O)[C@@H](Cc2ccccc2)OC(=O)[C@H](CC(C)C)N(C)C(=O)[C@@H](C)OC(=O)[C@H](CC(C)C)N(C)C1=O", "note": "[PF1022-003, 环—(—L—MeLeu—D—Lac—L—MeLeu—D—PhLac—L—Meleu—D—Lac—L—Meleu—D—LEUA)]", "values": [{"measurement": "存留虫收(average value±SD)", "setting": "巴西日园线虫", "result": "689±48.1"}, {"measurement": "杀虫率", "setting": "鸡蛔虫; dose 10 mg/kg", "result": 76, "unit": "%"}]}
{"molecule": "CC(C)CC1NC(=O)C(Cc2ccccc2)OC(=O)C(CC(C)C)N(C)C(=O)C(C)OC(=O)C(CC(C)C)NC(=O)C(Cc2ccccc2)OC(=O)C(CC(C)C)N(C)C(=O)C(C)OC1=O", "note": "(centres unmarked) [PF1022-218, 环—(L—MeLeu—D—PhLac—L—Leu—D—Lac)2]", "values": [{"measurement": "存留虫收(average value±SD)", "setting": "巴西日园线虫", "result": "2400±362.0"}]}
{"molecule": "CC(C)C[C@@H]1NC(=O)[C@@H](C)OC(=O)[C@H](CC(C)C)N(C)C(=O)[C@@H](Cc2ccccc2)OC(=O)[C@H](CC(C)C)NC(=O)[C@@H](C)OC(=O)[C@H](CC(C)C)N(C)C(=O)[C@@H](Cc2ccccc2)OC1=O", "note": "[PF1022-219, 环—(L—MeLeu—D—Lac—L—Leu—D—PhLac)2]", "values": [{"measurement": "存留虫收(average value±SD)", "setting": "巴西日园线虫", "result": "2084.5±94.0"}]}
{"molecule": "CC(C)CC1C(=O)OC(CC2CCCCC2)C(=O)N(C)C(CC(C)C)C(=O)OC(C)C(=O)N(C)C(CC(C)C)C(=O)OC(CC2CCCCC2)C(=O)N(C)C(CC(C)C)C(=O)OC(C)C(=O)N1C", "note": "(centres unmarked) [PF1022-ADH, 十二氢—PF 1022]", "values": [{"measurement": "杀虫率", "setting": "鸡蛔虫; dose 5 mg/kg", "result": 30, "unit": "%"}]}
{"molecule": "CC(C)CC1C(=O)OC(CC2CCCCC2)C(=O)N(C)C(CC(C)C)C(=O)OC(C)C(=O)N(C)C(CC(C)C)C(=O)OC(Cc2ccccc2)C(=O)N(C)C(CC(C)C)C(=O)OC(C)C(=O)N1C", "note": "(centres unmarked) [PF1022-AHH, 六氢—PF1022]", "values": [{"measurement": "杀虫率", "setting": "鸡蛔虫; dose 5 mg/kg", "result": 62, "unit": "%"}]}
{"molecule": "CC(C)C[C@H]1C(=O)O[C@H](Cc2ccccc2)C(=O)N(C)[C@@H](CC(C)C)C(=O)O[C@H](C)C(=O)N(C)[C@@H](CC(C)C)C(=O)O[C@H](Cc2ccccc2)C(=O)N(C)[C@@H](CC(C)C)C(=O)O[C@H](C)C(=O)N1C", "note": "[PF1022]", "values": [{"measurement": "存留虫收(average value±SD)", "setting": "巴西日园线虫", "result": "403±32.5"}, {"measurement": "杀虫率", "setting": "鸡蛔虫; dose 0.5 mg/kg", "result": "50-70%"}, {"measurement": "杀虫率", "setting": "鸡蛔虫; dose 1.0 mg/kg", "result": "60-86%"}]}
{"molecule": "环—(L—MeLeu—D—PhLac—L—MeLeu—D—Lac—L—MeLeu—D—TYRA(OBn)—L—MeLeu—D—Lac) [PF1022-022]", "values": [{"measurement": "杀虫率", "setting": "鸡蛔虫; dose 5 mg/kg", "result": 84, "unit": "%"}]}
{"molecule": "环—(L—MeLeu—D—VALA—L—MeLeu—D—Lac)2 [PF1022-209]", "values": [{"measurement": "存留虫收(average value±SD)", "setting": "巴西日园线虫", "result": "827±388.9"}]}
